Structures can show the parent of a compound that is named as a salt. Where two headings read alike, the source gives them in different places.
What was measured:
sub-diabetic rats = experiment: Improvement of glucose tolerance in STZ sub-diabetic rats (Experiment 1); format: in vivo, Male Sprague-Dawley rats; conditions: for inhibition in vivo at 10 mg/kg / Improvement of glucose tolerance at 10 mg/kg: Rattus norvegicus; for inhibition in vivo at 10 mg/kg: 10 mg/kg oral, STZ sub-diabetic rats, relative to control group as 100%; for Improvement of glucose tolerance at 10 mg/kg: po
Method: Male Sprague-Dawley rats (weighing 300-350 g) were maintained on rat chow and water adlibitum in a constant temperature room (22°-24° C.) for at least a week prior to use in studies. Sub-diabetic rats*^1 were obtained by intrevenous injection of 20 mg/kg of streptozotocin (STZ). The compounds were orally administered in 5% gum arabic suspension in sub-diabetic rats. 3 g/kg of glucose was administered intraperitoneally an hour later. Blood samples were taken from the tail vein, and the blood sugar was measured by the anthrone method [Ui.
*1: STZ sub-diabetic rats are obtained by administering a low dose of streptozotocin (20 mg/kg) dissolved in physiological saline containing 1 mM citrate buffer (pH 4.5) into the superficial cutaneous vein.
*^2 The improvement percent of glucose tolerance means a percentage o
blood sugar of the group treated with the test compounds each after
glucose load (1, 2 and 3 hours after) relative to that of the control

DDY strain mice = experiment: Acute Toxicity Test, oral, mice (Experiment 2); format: in vivo; conditions: observation within one week; for Acute toxicity, number of dead cases / number of cases tested, 500 mg/kg: 500 mg/kg oral; for Acute toxicity, number of dead cases / number of cases tested, 1,000 mg/kg: 1,000 mg/kg oral
Method: More specifically, when an experiment was carried out in DDY strain mice, there was no case of death at a dosage of 1,000 mg/kg, as shown below.
DDY strain mice (weighing 20-25 g) maintained on mice chow and water adlibitum in a constant temperature room (22°-24° C.) for at least a week were used.
An acute toxicity test was carried out by oral administration of the compounds at two dosage levels of 500 mg/kg and 1,000 mg/kg. Observation of dead cases were made within one week. In table 2, the denominator of each value indicates the number of cases tested and the numerator indicates the number of dead cases. Compounds A, B, C, D, E and F correspond to Compoounds A-F in Experiment 1 respectively.

[1] = 1 hr. after glucose load (3 g/kg i.p.), read-out: Improvement percent of glucose tolerance, 1 hr.
[2] = 2 hrs. after glucose load (3 g/kg i.p.), read-out: Improvement percent of glucose tolerance, 2 hrs.
[3] = 3 hrs. after glucose load (3 g/kg i.p.), read-out: Improvement percent of glucose tolerance, 3 hrs.
[4] = 1 h, read-out: Improvement percent of glucose tolerance, 1 hr.
[5] = 2 h, read-out: Improvement percent of glucose tolerance, 2 hrs.
[6] = 3 h, read-out: Improvement percent of glucose tolerance, 3 hrs.

Row | Compound | inhibition in vivo at 10 mg/kg (sub-diabetic rats; [1]) | inhibition in vivo at 10 mg/kg (sub-diabetic rats; [2]) | inhibition in vivo at 10 mg/kg (sub-diabetic rats; [3]) | Acute toxicity, number of dead cases / number of cases tested, 500 mg/kg (DDY strain mice) | Acute toxicity, number of dead cases / number of cases tested, 1,000 mg/kg (DDY strain mice) | Improvement of glucose tolerance at 10 mg/kg (sub-diabetic rats; [4]) | Improvement of glucose tolerance at 10 mg/kg (sub-diabetic rats; [5]) | Improvement of glucose tolerance at 10 mg/kg (sub-diabetic rats; [6]) | Improvement percent of glucose tolerance after 1 hour (sub-diabetic rats; 39 mg/kg, 6 rats, after 1 hour, method similar to Experiment 1) | Improvement percent of glucose tolerance after 2 hours (sub-diabetic rats; 39 mg/kg, 6 rats, after 2 hours, method similar to Experiment 1) | Improvement percent of glucose tolerance after 3 hours (sub-diabetic rats; 39 mg/kg, 6 rats, after 3 hours, method similar to Experiment 1)
1 | CCC(=O)OC(CN1CCN(c2ccccn2)CC1)CN1C(=O)c2ccccc2C1=O (stereo not drawn) [Compound I, N-[2-Propionyloxy-3-{4-(2-pyridyl)piperazin-1-yl}propyl]phthalimide maleate] | 14% | 26% | 31% | – | – | – | – | – | – | – | –
2 | CCCCCC(=O)OC(CN1CCN(C)CC1)CN1C(=O)C2CC=CCC2C1=O (stereo not drawn) [Compound J, N-{2-n-Caproyloxy-3-(4-methylpiperazin-1-yl)propyl}cis-cyclohex-4-ene-1,2-dicarboximide dimaleate] | 0% | 21% | 32% | – | – | – | – | – | – | – | –
3 | CCCCCC(=O)OC(CN1CCN(c2ccccn2)CC1)CN1C(=O)C2CC=CCC2C1=O (stereo not drawn) [Compound C, N-[2-n-Caproyloxy-3-{4-(2-pyridyl)piperazin-1-yl}propyl]cis-cyclohex-4-ene-1,2-dicarboximide dimaleate] | 7% | 17% | 23% | 0/5 | 0/5 | – | – | – | – | – | –
4 | CCCCCCCCCC(=O)OC(CN1CCN(c2ccccn2)CC1)CN1C(=O)C2CC=CCC2C1=O (stereo not drawn) [Compound B, N-[2-n-Decanoyloxy-3-{4-(2-pyridyl)piperazin-1-yl}propyl]cis-cyclohex-4-ene-1,2-dicarboximide dimaleater] | 15% | 23% | 26% | 0/5 | 0/5 | – | – | – | – | – | –
5 | CCCCCC/C=C/C(=O)OC(CN1CCN(c2ccccn2)CC1)CN1C(=O)[C@H]2CC=CC[C@H]2C1=O.O=C(O)/C=C\C(=O)O.O=C(O)/C=C\C(=O)O (relative stereo) [Compound D, N-[2-(trans-2-Nonenoyloxy)-3-{4-(2-pyridyl)piperazin-1-yl}propyl]cis-cyclohex-4-ene-1,2-dicarboximide dimaleate] | – | – | – | 0/5 | 0/5 | 0% | 13% | 26% | – | – | –
6 | O=C(OC(CN1CCN(c2ccccn2)CC1)CN1C(=O)[C@@H]2[C@H](C1=O)[C@@H]1C=C[C@H]2C1)C1CCCCC1 (stereo partly drawn) [Compound F, N-[2-Cyclohexylcarbonyloxy-3-{4-(2-pyridyl)piperazin-1-yl}propyl]endo-cis-bicyclo[2,2,1]hept-5-ene-2,3-dicarboximide dimaleate] | 14% | 25% | 34% | 0/5 | 0/5 | – | – | – | – | – | –
7 | O=C(O)/C=C\C(=O)O.O=C(OC(CN1CCN(c2ccccn2)CC1)CN1C(=O)[C@H]2CC=CC[C@H]2C1=O)c1cccnc1 (relative stereo) [Compound E, N-[2-Nicotinoyloxy-3-{4-(2-pyridyl)piperazin-1-yl}propyl]cis-cyclohex-4-ene-1,2-dicarboximide maleate] | – | – | – | 0/5 | 0/5 | 11% | 20% | 9% | – | – | –
8 | O=C(OC(CN1CCN(c2ccccn2)CC1)CN1C(=O)c2ccccc2C1=O)c1cccnc1 (stereo not drawn) [Compound H, N-[2-Nicotinoyloxy-3-{4-(2-pyridyl)piperazin-1-yl}propyl]phthalimide maleate] | 19% | 23% | 27% | – | – | – | – | – | – | – | –
9 | O=C(OC(CN1CCN(c2ccccn2)CC1)CN1C(=O)[C@@H]2[C@H](C1=O)[C@@H]1C=C[C@H]2C1)C1CCCCC1 (stereo partly drawn) [Example 7, N-[2-Cyclohexylcarbonyloxy-3-{4-(2-pyridyl)piperazin-1-yl}propyl]-endo-cis-bicyclo[2,2,1]hept-5-ene-2,3-dicarboximide dihydrochloride] | – | – | – | – | – | – | – | – | 23% | 33% | 37%
10 | O=C(O)/C=C\C(=O)O.O=C(OC(CN1CCN(c2ccccn2)CC1)CN1C(=O)CCC1=O)C1CCCCC1 (stereo not drawn) [Compound A, N-[2-Cyclohexylcarbonyloxy-3-{4-(2-pyridyl)piperazin-1-yl}propyl]succinimide maleate] | – | – | – | 0/5 | 0/5 | 12% | 25% | 19% | – | – | –
11 | CCCCCCCCCCCCCCCC(=O)OC(CN1CCN(c2ccccn2)CC1)CN1C(=O)[C@H]2CC=CC[C@H]2C1=O (relative stereo) [Compound G, N-[2-Palmitoyloxy-3-{4-(2-pyridyl)piperazin-1-yl}propyl]cis-cyclohex-4-ene-1,2-dicarboximide dimaleate] | 3% | 15% | 24% | – | – | – | – | – | – | – | –
